Assay results published in PubChem BioAssay AID2060490 (Molecular Pharmacology Branch, DTP, NCI, 2025).

Tested on: 885512-296-R-J2-PDC complex spheroid viability
Assay: Anticancer human tumor 885512-296-R-J2-PDC patient-derived breast carcinoma cell line growth inhibition [GQUAD]
Details: for IC50: curve of first compound; for viability, T/C: stronger effect = lower value; active = viability on the fitted dose curve at most 10% of control; inactive = the rest
Procedure, shortened: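 Multi-cell-type spheroids of tumor cells with HUVEC and mesenchymal stem cells, treated with drug combinations. Concentrations descend in half-log steps from near clinical Cmax, or from 10 microM where Cmax is unknown; viability read-out.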

[1] = second compound 0.0316 µM, first compound 0.0316 µM
[2] = second compound 0.0316 µM, first compound 0.1 µM
[3] = second compound 0.0316 µM, first compound 0.316 µM
[4] = second compound 0.0316 µM, first compound 1 µM
[5] = second compound 0.0316 µM, first compound 3.16 µM
[6] = second compound 0.0316 µM, first compound 10 µM
[7] = second compound 0.1 µM, first compound 0.0316 µM
[8] = second compound 0.1 µM, first compound 0.1 µM
[9] = second compound 0.1 µM, first compound 0.316 µM
[10] = second compound 0.1 µM, first compound 1 µM
[11] = second compound 0.1 µM, first compound 3.16 µM
[12] = second compound 0.1 µM, first compound 10 µM
[13] = second compound 0.316 µM, first compound 0.0316 µM
[14] = second compound 0.316 µM, first compound 0.1 µM
[15] = second compound 0.316 µM, first compound 0.316 µM
[16] = second compound 0.316 µM, first compound 1 µM
[17] = second compound 0.316 µM, first compound 3.16 µM
[18] = second compound 0.316 µM, first compound 10 µM
[19] = second compound 1 µM, first compound 0.0316 µM
[20] = second compound 1 µM, first compound 0.1 µM
[21] = second compound 1 µM, first compound 0.316 µM
[22] = second compound 1 µM, first compound 1 µM
[23] = second compound 1 µM, first compound 3.16 µM
[24] = second compound 1 µM, first compound 10 µM
[25] = second compound 3.16 µM, first compound 0.0316 µM
[26] = second compound 3.16 µM, first compound 0.1 µM
[27] = second compound 3.16 µM, first compound 0.316 µM
[28] = second compound 3.16 µM, first compound 1 µM
[29] = second compound 3.16 µM, first compound 3.16 µM
[30] = second compound 3.16 µM, first compound 10 µM
[31] = second compound 10 µM, first compound 0.0316 µM
[32] = second compound 10 µM, first compound 0.1 µM
[33] = second compound 10 µM, first compound 0.316 µM
[34] = second compound 10 µM, first compound 1 µM
[35] = second compound 10 µM, first compound 3.16 µM
[36] = second compound 10 µM, first compound 10 µM
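Also: spheroids exposed to the compounds for one week.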
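For viability, T/C in this document: percent of tumor spheroid viability relative to DMSO vehicle control wells.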

CC1COCCN1c1cc(-c2ccnn2C)c2ccnc(-c3ccn[nH]3)c2n1 (stereo unspecified) + Cc1[nH]c2ccc(F)cc2c1-c1nc2c3cccnc3c3ncccc3c2[nH]1
36 nM: IC50 (second compound 0.1 µM)
active: viability, T/C [2] 7.14% | viability, T/C [3] 3.23% | viability, T/C [4] 2.97% | viability, T/C [5] 4.21% | viability, T/C [6] 7.57% | viability, T/C [8] 5.92% | viability, T/C [9] 3.53% | viability, T/C [10] 3.59% | viability, T/C [11] 5.52% | viability, T/C [12] 6.77% | viability, T/C [14] 3.68% | viability, T/C [15] 2.99% | viability, T/C [16] 2.87% | viability, T/C [17] 5.08% | viability, T/C [18] 7.25% | viability, T/C [19] 5.35% | viability, T/C [20] 3.41% | viability, T/C [21] 2.46% | viability, T/C [22] 2.67% | viability, T/C [23] 5.38% | viability, T/C [24] 5.76% | viability, T/C [25] 1.59% | viability, T/C [26] 1.58% | viability, T/C [27] 1.11% | viability, T/C [28] 1.8% | viability, T/C [29] 3.23% | viability, T/C [30] 3.81% | viability, T/C [31] 1.17% | viability, T/C [32] 1.15% | viability, T/C [33] 1.51% | viability, T/C [34] 2.19% | viability, T/C [35] 2.68% | viability, T/C [36] 4.02%
inactive: viability, T/C [1] 44.6% | viability, T/C [7] 55.6% | viability, T/C [13] 37.9%
< 31.6 nM: IC50 (second compound 0.0316 µM) | IC50 (second compound 0.316 µM) | IC50 (second compound 1 µM) | IC50 (second compound 3.16 µM) | IC50 (second compound 10 µM)

CCc1c2c(nc3ccc(O)cc13)-c1cc3c(c(=O)n1C2)COC(=O)[C@]3(O)CC + CN(C)c1ccc(Nc2c3ccc(NC(=O)CCN4CCCC4)cc3nc3cc(NC(=O)CCN4CCCC4)ccc23)cc1
inactive: viability, T/C (second compound 0.0316 µM, first compound 0.000999 µM) 18.3% | viability, T/C (second compound 0.1 µM, first compound 0.000999 µM) 15.7% | viability, T/C (second compound 0.316 µM, first compound 0.000999 µM) 13.1% | viability, T/C (second compound 1 µM, first compound 0.000999 µM) 19.3% | viability, T/C (second compound 3.16 µM, first compound 0.000999 µM) 18.7% | viability, T/C (second compound 3.16 µM, first compound 0.00316 µM) 11.3% | viability, T/C (second compound 10 µM, first compound 0.000999 µM) 12.8%
< 0.999 nM: IC50 (second compound 0.0316 µM) | IC50 (second compound 0.1 µM) | IC50 (second compound 0.316 µM) | IC50 (second compound 1 µM) | IC50 (second compound 3.16 µM) | IC50 (second compound 10 µM)
active: viability, T/C (second compound 0.0316 µM, first compound 0.00316 µM) 6.69% | viability, T/C (second compound 0.0316 µM, first compound 0.00999 µM) 3.15% | viability, T/C [1] 1.94% | viability, T/C (second compound 0.0316 µM, first compound 0.0999 µM) 1.66% | viability, T/C [3] 1.39% | viability, T/C (second compound 0.1 µM, first compound 0.00316 µM) 7.02% | viability, T/C (second compound 0.1 µM, first compound 0.00999 µM) 3.83% | viability, T/C [7] 2.59% | viability, T/C (second compound 0.1 µM, first compound 0.0999 µM) 1.42% | viability, T/C [9] 1.57% | viability, T/C (second compound 0.316 µM, first compound 0.00316 µM) 7.17% | viability, T/C (second compound 0.316 µM, first compound 0.00999 µM) 3.49% | viability, T/C [13] 2.63% | viability, T/C (second compound 0.316 µM, first compound 0.0999 µM) 1.58% | viability, T/C [15] 1.1% | viability, T/C (second compound 1 µM, first compound 0.00316 µM) 6.88% | viability, T/C (second compound 1 µM, first compound 0.00999 µM) 3.62% | viability, T/C [19] 2.24% | viability, T/C (second compound 1 µM, first compound 0.0999 µM) 1.82% | viability, T/C [21] 1.23% | viability, T/C (second compound 3.16 µM, first compound 0.00999 µM) 4.83% | viability, T/C [25] 2.33% | viability, T/C (second compound 3.16 µM, first compound 0.0999 µM) 1.61% | viability, T/C [27] 1.26% | viability, T/C (second compound 10 µM, first compound 0.00316 µM) 10.4% | viability, T/C (second compound 10 µM, first compound 0.00999 µM) 6.78% | viability, T/C [31] 3.28% | viability, T/C (second compound 10 µM, first compound 0.0999 µM) 1.43% | viability, T/C [33] 0.56%

CC1COCCN1c1cc(-c2ccnn2C)c2ccnc(-c3ccn[nH]3)c2n1 (stereo unspecified) + CN(C)c1ccc(Nc2c3ccc(NC(=O)CCN4CCCC4)cc3nc3cc(NC(=O)CCN4CCCC4)ccc23)cc1
37.2 nM: IC50 (second compound 0.0316 µM)
< 31.6 nM: IC50 (second compound 0.316 µM) | IC50 (second compound 1 µM) | IC50 (second compound 3.16 µM) | IC50 (second compound 10 µM)
inactive: viability, T/C [1] 57.1% | viability, T/C [7] 50.8% | viability, T/C [13] 46.7% | viability, T/C [19] 44% | viability, T/C [25] 27.2% | viability, T/C [31] 12.7%
active: viability, T/C [2] 6.61% | viability, T/C [3] 3.14% | viability, T/C [4] 3% | viability, T/C [5] 4.69% | viability, T/C [6] 8.34% | viability, T/C [8] 7.66% | viability, T/C [9] 2.82% | viability, T/C [10] 3.38% | viability, T/C [11] 5.04% | viability, T/C [12] 7.27% | viability, T/C [14] 6.13% | viability, T/C [15] 3.67% | viability, T/C [16] 3.77% | viability, T/C [17] 5.39% | viability, T/C [18] 7.84% | viability, T/C [20] 7.67% | viability, T/C [21] 3.43% | viability, T/C [22] 3.61% | viability, T/C [23] 4.71% | viability, T/C [24] 8.81% | viability, T/C [26] 6.07% | viability, T/C [27] 3.25% | viability, T/C [28] 3.51% | viability, T/C [29] 5.21% | viability, T/C [30] 7.01% | viability, T/C [32] 7.23% | viability, T/C [33] 4.41% | viability, T/C [34] 3.59% | viability, T/C [35] 4.61% | viability, T/C [36] 2.61%
32.2 nM: IC50 (second compound 0.1 µM)
